Measurements reported in ChEMBL document CHEMBL5260848, “Recent advancements in the development of bioactive pyrazoline derivatives” (Eur J Med Chem, 2020).
In brackets after ≈: the same amount, converted by molar mass.

Legend:
Escherichia coli [1] = experiment: microbe, parasite or virus in culture
Staphylococcus aureus [2] = experiment: microbe, parasite or virus in culture
Rattus norvegicus = experiment: Antiinflammatory activity in carrageenan induced rat paw edema model relative to indomethacin; type: functional
HeLa [3] = experiment: Cytotoxicity against human HeLa cells assessed as reduction in cell viability; type: functional, cell-based
HepG2 [4] = experiment: Cytotoxicity against human HepG2 cells assessed as reduction in cell viability; type: functional, cell-based
RAW264.7 [5] = experiment: Antiinflammatory activity in LPS-induced mouse RAW264.7 cells assessed as inhibition of LPS induced NO production; type: functional, cell-based
RAW264.7 [6] = experiment: Cytotoxicity against mouse RAW264.7 cells relative to control; type: functional
[7] = Antioxidant activity assessed as DPPH radical scavenging activity; type: functional
Escherichia coli [8] = experiment: Potency index, ratio of ampicillin MIC to compound MIC for Escherichia coli by agar dilution method; type: functional
Bacillus subtilis = experiment: Antibacterial activity against Bacillus subtilis by agar dilution method; type: functional
Staphylococcus aureus [9] = experiment: Potency index, ratio of ampicillin MIC to compound MIC for Staphylococcus aureus by agar dilution method; type: functional
Staphylococcus aureus [10] = experiment: Antibacterial activity against Staphylococcus aureus by agar dilution method; type: functional
Escherichia coli [11] = experiment: Antibacterial activity against Escherichia coli by agar dilution method; type: functional
Candida albicans [12] = experiment: Antifungal activity against Candida albicans by agar dilution method; type: functional
Pseudomonas aeruginosa [13] = experiment: Antibacterial activity against Pseudomonas aeruginosa by agar dilution method; type: functional
HepG2 [14] = experiment: Cytotoxicity against human HepG2 cells; type: functional, cell-based
Huh-7 = experiment: Cytotoxicity against human Huh-7 cells; type: functional, cell-based
Plasmodium falciparum [15] = experiment: In vivo antimalarial activity against Plasmodium berghei K173 infected in mouse assessed as chemo-supression percentage at 50 mg/kg, ip by giemsa staining based microscopic analysis relative to control; type: functional
Hemozoin = experiment: Inhibition of Beta-hematin in Plasmodium berghei
Plasmodium falciparum [16] = experiment: Antimalarial activity against chloroquine-sensitive Plasmodium falciparum NF54 measured after 72 hrs by giemsa staining based analysis; type: functional, organism-based; conditions: NF54, 72 h
Plasmodium falciparum [17] = experiment: In vivo antimalarial activity against Plasmodium berghei K173 infected in mouse assessed as reduction in parasitemia at 100 mg/kg, ip measured after 6 days by giemsa staining based microscopic analysis relative to control; type: functional; set-up: scale not given: the % may be the effect or the level left; conditions: time 6 day
Plasmodium falciparum [18] = experiment: In vivo antimalarial activity against Plasmodium berghei K173 infected in mouse assessed as chemo-supression percentage at 100 mg/kg, ip by giemsa staining based microscopic analysis relative to control; type: functional
Plasmodium falciparum [19] = experiment: In vivo antimalarial activity against Plasmodium berghei K173 infected in mouse assessed as reduction in parasitemia at 50 mg/kg, ip measured after 6 days by giemsa staining based microscopic analysis relative to control; type: functional; set-up: scale not given: the % may be the effect or the level left; conditions: time 6 day
Staphylococcus aureus [20] = experiment: Antibacterial activity against Staphylococcus aureus; type: functional
Rhizopus arrhizus = experiment: Antifungal activity against Rhizopus oryzae; type: functional
Carbonic anhydrase 2 = Carbonic anhydrase 2 (Homo sapiens, UniProt P00918); experiment: Inhibition of human CA2 by UV spectrophotometric analysis
Carbonic anhydrase 1 = Carbonic anhydrase 1 (Homo sapiens, UniProt P00915); experiment: Inhibition of human CA1 by UV spectrophotometric analysis
Acetylcholinesterase = Acetylcholinesterase (Homo sapiens, UniProt P22303)
MCF7 = experiment: cells; conditions: Homo sapiens
DU-145 = experiment: Cytotoxicity against human DU-145 cells by SRB assay; type: functional
HeLa [21] = experiment: Cytotoxicity against human HeLa cells by SRB assay; type: functional
A549 [22] = experiment: Cytotoxicity against human A549 cells by SRB assay; type: functional
HepG2 [23] = experiment: Cytotoxicity against human HepG2 cells by SRB assay; type: functional
[24] = Cytotoxicity against human HPLF cells assessed as reduction in cell viability incubated for 48 hrs by MTT assay; type: functional
[25] = Cytotoxicity against human HPC cells assessed as reduction in cell viability incubated for 48 hrs by MTT assay; type: functional
HSC-2 = experiment: Cytotoxicity against human HSC-2 cells assessed as reduction in cell viability incubated for 48 hrs by MTT assay; type: functional
HepG2 [26] = experiment: cells; conditions: Homo sapiens
HSC-3 = experiment: Cytotoxicity against human HSC-3 cells assessed as reduction in cell viability incubated for 48 hrs by MTT assay; type: functional
Ca9-22 = experiment: Cytotoxicity against human Ca9-22 cells assessed as reduction in cell viability incubated for 48 hrs by MTT assay; type: functional
[27] = Cytotoxicity against human HGF cells assessed as reduction in cell viability incubated for 48 hrs by MTT assay; type: functional
Staphylococcus aureus [28] = experiment: Antibacterial activity against Staphylococcus aureus assessed as inhibition of microbial growth; type: functional
Candida albicans [29] = experiment: Antifungal activity against Candida albicans; type: functional
Aspergillus niger = experiment: Antifungal activity against Aspergillus niger; type: functional
Streptococcus pyogenes = experiment: Antibacterial activity against Streptococcus pyogenes assessed as inhibition of microbial growth; type: functional
Aspergillus clavatus = experiment: Antifungal activity against Aspergillus clavatus; type: functional
[30] = test system: Mycolicibacterium smegmatis; experiment: Antimycobacterial activity against Mycobacterium smegmatis; type: functional
Staphylococcus aureus [31] = experiment: microbe, parasite or virus in culture; remark: listed apart in the source
[32] = test system: Mycobacterium tuberculosis; experiment: Antimycobacterial activity against Mycobacterium tuberculosis; type: functional
Candida albicans [33] = experiment: microbe, parasite or virus in culture
A549 [34] = experiment: Cytotoxicity against human A549 cells assessed as reduction in cell viability; type: functional, cell-based
Escherichia coli [35] = experiment: microbe, parasite or virus in culture; remark: listed apart in the source
Pseudomonas aeruginosa [36] = experiment: microbe, parasite or virus in culture

Chain of Acetylcholinesterase (P22303 whole entry): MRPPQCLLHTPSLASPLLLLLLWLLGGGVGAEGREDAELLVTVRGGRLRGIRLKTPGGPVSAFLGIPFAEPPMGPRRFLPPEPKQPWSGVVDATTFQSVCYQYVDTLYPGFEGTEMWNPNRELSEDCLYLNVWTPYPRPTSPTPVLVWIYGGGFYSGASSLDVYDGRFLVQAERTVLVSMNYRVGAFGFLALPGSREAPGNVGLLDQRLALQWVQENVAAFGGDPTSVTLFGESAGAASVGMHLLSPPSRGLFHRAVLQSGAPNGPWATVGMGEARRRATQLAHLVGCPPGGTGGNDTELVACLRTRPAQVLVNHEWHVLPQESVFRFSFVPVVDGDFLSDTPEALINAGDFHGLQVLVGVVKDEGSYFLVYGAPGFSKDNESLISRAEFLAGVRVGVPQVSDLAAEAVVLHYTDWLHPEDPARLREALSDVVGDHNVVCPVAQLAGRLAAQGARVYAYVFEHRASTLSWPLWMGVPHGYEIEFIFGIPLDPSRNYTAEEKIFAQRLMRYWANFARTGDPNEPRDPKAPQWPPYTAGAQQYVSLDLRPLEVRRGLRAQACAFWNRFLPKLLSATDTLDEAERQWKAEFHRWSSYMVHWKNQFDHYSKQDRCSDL
Chain of Carbonic anhydrase 1 (P00915 whole entry): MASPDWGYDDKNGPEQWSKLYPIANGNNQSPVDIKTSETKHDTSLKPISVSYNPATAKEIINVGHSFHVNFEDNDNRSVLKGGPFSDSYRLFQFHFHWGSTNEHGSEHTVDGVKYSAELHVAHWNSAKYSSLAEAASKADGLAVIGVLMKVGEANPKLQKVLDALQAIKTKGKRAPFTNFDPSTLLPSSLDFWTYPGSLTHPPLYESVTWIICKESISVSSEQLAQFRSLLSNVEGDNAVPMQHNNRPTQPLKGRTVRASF

COC(=O)C1N=NN(CC(=O)N2N=C(c3ccccc3)CC2c2cccs2)C1C(=O)OC (configuration not stated)
MIC (Escherichia coli [1]): 3.9 µg/mL (≈ 8.56 µM) | MIC (Staphylococcus aureus [2]): 3.9 µg/mL (≈ 8.56 µM)

Cc1ccc(/C=C/C2=NN(C(N)=O)C(c3ccc(C)s3)C2)s1 (configuration not stated)
Activity (Rattus norvegicus): 103%

COc1cc(C2CC(c3ccc(F)cc3)=NN2C(N)=S)cc(OC)c1OC (configuration not stated)
IC50 (HeLa [3]): 7.63 µM | IC50 (HepG2 [4]): 6.78 µM

C[C@]12CC[C@H]3[C@@H](CC=C4C[C@@H](O)CC[C@@]43C)[C@@H]1CC[C@@H]2C1=NN(C(N)=S)C(c2cccc(F)c2)C1 (some centres not stated)
IC50 (RAW264.7 [5]): 1.02 µM | Activity (RAW264.7 [6]): >90%

COc1ccc2c(c1)cc(C1CC(c3cc(Br)ccc3O)=NN1)c1nnnn12 (configuration not stated)
IC50 [7]: 21 µg/mL (≈ 47.8 µM) | Ratio (Escherichia coli [8]): 2 | MIC (Bacillus subtilis): 25 µg/mL (≈ 56.9 µM) | Ratio (Staphylococcus aureus [9]): 10 | MIC (Staphylococcus aureus [10]): 50 µg/mL (≈ 114 µM) | MIC (Escherichia coli [11]): 50 µg/mL (≈ 114 µM) | MIC (Candida albicans [12]): 25 µg/mL (≈ 56.9 µM) | MIC (Pseudomonas aeruginosa [13]): 25 µg/mL (≈ 56.9 µM)

N#Cc1c(-c2ccc(F)cc2)nc(N2N=C(c3c4ccccc4cc4ccccc34)CC2c2ccc(F)cc2)[nH]c1=O (configuration not stated)
IC50 (HepG2 [14]): 5.34 µg/mL (≈ 9.65 µM) | IC50 (Huh-7): 6.13 µg/mL (≈ 11.1 µM)

COc1cc(C)c(C2C=C(c3cc(OC)c(OC)c(OC)c3)N(C(=O)OC(C)C)N2C(=O)OC(C)C)cc1C(C)C (configuration not stated)
Activity (Plasmodium falciparum [15]): 25.29% | IC50 (Hemozoin): 38.8 µM | IC50 (Plasmodium falciparum [16]): < 2 µM | Activity (Plasmodium falciparum [17]): 4.62% | Activity (Plasmodium falciparum [18]): 55.6% | Activity (Plasmodium falciparum [19]): 8.03%

COc1ccc(C2CC(c3cc4ccccc4oc3=O)=NN2c2ccccc2)cc1OC (configuration not stated)
MIC (Staphylococcus aureus [20]): 12.5 µg/mL (≈ 29.3 µM) | MIC (Rhizopus arrhizus): 12.5 µg/mL (≈ 29.3 µM)

COc1ccc(N2N=C(/C=C/c3ccc(C)o3)CC2c2ccc(C)o2)cc1 (configuration not stated)
Activity (Rattus norvegicus): 104%

COc1ccc(C2CC(c3ccccc3)=NN2c2ccc(S(N)(=O)=O)cc2)cc1OC (configuration not stated)
Ki (Carbonic anhydrase 2): 0.0274 µM | Ki (Carbonic anhydrase 1): 0.0279 µM | Ki (Acetylcholinesterase): 0.0377 µM

CNC(=S)N1N=C(c2nnn(-c3ccc(-n4nnc(C5=NN(C(=S)NC)C(c6ccccc6)C5)c4C)cc3)c2C)CC1c1ccccc1 (configuration not stated)
IC50 (MCF7): 32.3 µg/mL (≈ 47.8 µM)

COc1ccc(C2CC(c3cc(OC)c(OC)c(OC)c3)=NN2C(C)=O)cc1OCc1cn(Cc2ccc(F)c(Cl)c2)nn1 (configuration not stated)
GI50 (DU-145): 7 µM | GI50 (HeLa [21]): 7 µM | GI50 (A549 [22]): 7 µM | GI50 (HepG2 [23]): 7 µM

COc1cc(C2CC(c3ccc(Cl)cc3)=NN2C(N)=S)cc(OC)c1OC (configuration not stated)
IC50 (HeLa [3]): 9.37 µM | IC50 (HepG2 [4]): 16 µM

O=c1[nH]cc(F)c(=O)[nH]1 [FLUOROURACIL]
IC50 (MCF7): 30 µg/mL (≈ 231 µM) | CC50 [24]: 13 µM | CC50 [25]: 13 µM | CC50 (HSC-2): 13 µM | IC50 (HepG2 [26]): 33.5 µg/mL (≈ 258 µM) | CC50 (HSC-3): 13 µM | CC50 (Ca9-22): 13 µM | CC50 [27]: 13 µM

O=C(c1ccncc1)N1N=C(c2ccc(Cl)cc2Cl)CC1c1cc2ccccc2nc1Cl (configuration not stated)
MIC (Staphylococcus aureus [28]): 12.5 µg/mL | MIC (Candida albicans [29]): 12.5 µg/mL (≈ 25.9 µM) | MIC (Aspergillus niger): 12.5 µg/mL (≈ 25.9 µM) | MIC (Streptococcus pyogenes): 12.5 µg/mL | MIC (Aspergillus clavatus): 50 µg/mL (≈ 104 µM)

Clc1ccc(-n2cc(C3CC(c4ccc(-c5ccccc5)cc4)=NN3)c(-c3cccs3)n2)cc1 (configuration not stated)
MIC [30]: 7.8 µg/mL (≈ 16.2 µM) | MIC (Staphylococcus aureus [31]): 1.56 µg/mL (≈ 3.24 µM) | MIC [32]: 1.56 µg/mL (≈ 3.24 µM) | MIC (Candida albicans [33]): 1.56 µg/mL (≈ 3.24 µM)

COc1cc(C2CC(c3ccc(Br)cc3)=NN2C(N)=S)cc(Br)c1O (configuration not stated)
IC50 (A549 [34]): 51 µM

COc1ccc(C2CC(c3ccc(Cl)cc3)=NN2c2ccc(S(N)(=O)=O)cc2)cc1OC (configuration not stated)
Ki (Carbonic anhydrase 2): 0.0274 µM | Ki (Carbonic anhydrase 1): 0.0279 µM | Ki (Acetylcholinesterase): 0.0377 µM

O=C(c1ccncc1)N1N=C(c2ccc(F)cc2)CC1c1cc2ccccc2nc1Cl (configuration not stated)
MIC (Candida albicans [29]): 12.5 µg/mL (≈ 29 µM) | MIC (Escherichia coli [35]): 12.5 µg/mL (≈ 29 µM) | MIC (Pseudomonas aeruginosa [36]): 12.5 µg/mL (≈ 29 µM)

O=C(c1ccncc1)N1N=C(c2ccc(Cl)cc2)CC1c1cc2ccccc2nc1Cl (configuration not stated)
MIC (Escherichia coli [35]): 12.5 µg/mL (≈ 27.9 µM) | MIC (Pseudomonas aeruginosa [36]): 12.5 µg/mL (≈ 27.9 µM)
